From patent US10214492B2, “Heterocyclic inhibitors of MCT4” (Vettore, LLC, priority 2016, dated 2019)

Experiments:
MCT4 = MCT4 (Homo sapiens (Human), UniProt O15427); assay: Assay 3: MCT4-mediated lactate transport in MDA-MB-231 breast cancer cells; assay type: cell-based; conditions: MDA-MB-231 cells; lactate transport
Procedure, shortened: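 Read-out is BCECF fluorescence tracking the intracellular pH shift from MCT4-mediated lactate/H+ co-transport. Before measurement, MDA-MB-231 cells take up BCECF-AM for 5 min at 37° C, then are washed into Tyrode's Solution, pH 7.4.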

MCT1 = MCT1 (Homo sapiens (Human), UniProt P53985); assay: Assay 4: MCT1-mediated lactate transport in BT20 breast cancer cells; assay type: cell-based; conditions: Table 27
Procedure, shortened: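 Transport started with 10 mM L-lactate on BCECF-loaded BT20 cells in Tyrode's Solution, pH 7.4. Dye loading: BCECF-AM ester (30 mM DMSO stock), 5 min at 37° C, then one wash.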

[1] = Metabolic stability in human liver microsomes (in vitro t1/2); assay type: in vitro ADME; conditions: for half-life at 2 µM: human liver microsomes 0.5 mg/mL, 2 μM compound, read-out: Human microsome t1/2, min; for Human microsome % 60 min: human liver microsomes
Procedure, shortened: (§1)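 Test compound (2 μM final) was added to NADPH-supplemented microsomes at 0.5 mg/mL protein and sampled over 60 min (0–60 min time points). In vitro t1/2 was calculated as −0.693/k, with k the slope of ln percent parent remaining, measured by LC-MS/MS, against time.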

[2] = Metabolic stability in rat liver microsomes (in vitro t1/2); assay type: in vitro ADME; conditions: for half-life at 2 µM: rat liver microsomes 0.5 mg/mL, 2 μM compound, read-out: Rat microsome t1/2, min; for Rat microsome % 60 min: rat liver microsomes
Procedure, shortened: as §1

[3] = Metabolic stability in mouse liver microsomes (in vitro t1/2); assay type: in vitro ADME; conditions: for half-life at 2 µM: read-out: Mouse microsome t1/2, min; for Mouse microsome % 60 min: mouse liver microsomes
Procedure, shortened: as §1

[4] = Pharmacokinetic assay in mouse (IV 3 mg/kg, PO 10 mg/kg); assay type: in vivo; conditions: Male CD1 mouse; for Mouse F: oral bioavailability; for Mouse F / half-life: PO 10 mg/kg; for half-life / Vd: plasma; for half-life: read-out: Mouse t1/2 (converted); for Vd: volume of distribution, read-out: Mouse Vss
Text: (§2) The following are assays that may be used to evaluate the pharmacokinetic properties of Formula (I) in mouse or rat. The assays follow a common procedure recited below.
(§3) 1. […] For PO (oral gavage), DMSO/PEG400 (10:90). Formulations freshly prepared on the day of dosing or prior to dosing. Storage at room temperature.
(§4) 2. Test Species: For Mouse: Male CD1 strain, approximately 6-8 weeks in age, approximately 20-30 g. For Rat: Male Sprague-Dawley strain, approximately 6-8 weeks in age, approximately 200-300 g.
(§5) 3. Dose Level: For IV, 3 mg/kg. For PO, 10 mg/kg.
(§6) 4. Number of animals: 3 per assay.
(§7) 5. PK time points: For IV (plasma): 5 min, 15 min, 1, 2, 4, 6, 8, 24 h post dose. For PO (plasma): 15 min, 30 min, 1, 2, 4, 6, 8, 24 h post dose.
(§8) 6. Blood Sample Collection and Processing. Blood was collected (˜0.2 mL per time point) from jugular vein. Blood of each sample was transferred into plastic micro centrifuge tubes containing anticoagulant of EDTA-K2. Blood samples were centrifuged at 2,000 g for 5 minutes at 4° C. to obtain plasma.
(§9) 7. Samples Analysis: Plasma samples were analyzed using LC/MS/MS method, and pharmacokinetic parameters (half-life: t1/2; oral bioavailability: F; volume of distribution: Vss).

[5] = Pharmacokinetic assay in rat (IV 3 mg/kg, PO 10 mg/kg); assay type: in vivo; conditions: Male Sprague-Dawley rat; for Rat F: oral bioavailability; for Rat F / half-life: PO 10 mg/kg; for half-life / Vd: plasma; for half-life: read-out: Rat t1/2 (converted); for Vd: volume of distribution, read-out: Rat Vss
Text: as §2, §3, §4, §5, §6, §7, §8, §9

[6] = Adjuvant-induced arthritis model in rat: Difference of Weight Bearing test (DWB); assay type: in vivo; conditions: SD rat, CFA-induced arthritis; PO 3 days post CFA; compared to Dexamethasone
[7] = Adjuvant-induced arthritis model in rat: Mechanical Allodynia test (MA, Von Frey); assay type: in vivo; conditions: SD rat, CFA-induced arthritis; PO 3 days post CFA; compared to Dexamethasone
[8] = mouse liver microsomes 0.5 mg/mL, 2 μM compound

Chain of MCT4 (O15427 whole entry, looked up): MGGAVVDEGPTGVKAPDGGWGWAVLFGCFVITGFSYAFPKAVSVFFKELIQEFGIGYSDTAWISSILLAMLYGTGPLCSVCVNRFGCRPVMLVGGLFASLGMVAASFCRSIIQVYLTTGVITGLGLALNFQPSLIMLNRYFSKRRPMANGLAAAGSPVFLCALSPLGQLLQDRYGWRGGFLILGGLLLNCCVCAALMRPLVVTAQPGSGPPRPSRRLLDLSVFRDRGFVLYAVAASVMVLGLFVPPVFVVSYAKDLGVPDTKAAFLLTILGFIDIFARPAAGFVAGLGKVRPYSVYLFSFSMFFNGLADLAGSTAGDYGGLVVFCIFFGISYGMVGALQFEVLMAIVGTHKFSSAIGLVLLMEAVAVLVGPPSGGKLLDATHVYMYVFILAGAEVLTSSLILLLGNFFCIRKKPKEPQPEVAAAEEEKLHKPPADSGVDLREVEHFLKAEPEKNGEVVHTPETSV
Chain of MCT4 (P35613 whole entry partner, looked up): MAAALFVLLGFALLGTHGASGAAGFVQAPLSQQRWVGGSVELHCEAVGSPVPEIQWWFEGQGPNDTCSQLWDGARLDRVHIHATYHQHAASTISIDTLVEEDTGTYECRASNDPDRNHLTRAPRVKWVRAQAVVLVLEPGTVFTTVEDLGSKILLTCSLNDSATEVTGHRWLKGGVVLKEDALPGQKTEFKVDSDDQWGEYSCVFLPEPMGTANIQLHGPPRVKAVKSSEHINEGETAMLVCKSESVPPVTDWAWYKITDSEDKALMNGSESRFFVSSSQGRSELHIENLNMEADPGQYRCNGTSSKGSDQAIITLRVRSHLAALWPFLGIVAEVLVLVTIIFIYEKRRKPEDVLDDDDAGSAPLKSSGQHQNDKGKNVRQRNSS
Chain of MCT1 (P53985 whole entry): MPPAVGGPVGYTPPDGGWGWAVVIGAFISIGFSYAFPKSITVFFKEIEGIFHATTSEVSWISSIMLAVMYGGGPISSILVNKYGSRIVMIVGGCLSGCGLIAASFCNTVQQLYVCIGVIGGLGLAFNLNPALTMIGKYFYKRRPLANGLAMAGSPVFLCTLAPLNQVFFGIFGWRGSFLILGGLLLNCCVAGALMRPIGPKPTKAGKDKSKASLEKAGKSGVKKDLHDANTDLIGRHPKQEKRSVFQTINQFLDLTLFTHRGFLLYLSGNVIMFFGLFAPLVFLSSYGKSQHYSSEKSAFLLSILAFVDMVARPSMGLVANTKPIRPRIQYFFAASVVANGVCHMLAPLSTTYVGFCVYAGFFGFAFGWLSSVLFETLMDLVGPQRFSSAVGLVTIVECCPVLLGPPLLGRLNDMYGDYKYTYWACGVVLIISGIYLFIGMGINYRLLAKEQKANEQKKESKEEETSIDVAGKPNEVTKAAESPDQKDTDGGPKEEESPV
Chain of MCT1 (P35613 140-385 partner): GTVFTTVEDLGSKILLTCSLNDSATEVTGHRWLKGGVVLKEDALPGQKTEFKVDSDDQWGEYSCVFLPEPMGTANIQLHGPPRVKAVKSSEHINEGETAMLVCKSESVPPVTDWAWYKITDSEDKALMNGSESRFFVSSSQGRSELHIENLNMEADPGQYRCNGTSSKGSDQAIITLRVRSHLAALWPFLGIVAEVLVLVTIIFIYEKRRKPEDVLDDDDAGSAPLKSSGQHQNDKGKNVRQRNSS

SMILES | IC50 (MCT4) | IC50 (MCT1) | half-life at 2 µM [1] | Human microsome % 60 min [1] | half-life at 2 µM [2] | Rat microsome % 60 min [2] | half-life at 2 µM [3, 8] | Mouse microsome % 60 min [3] | Mouse F [4] | half-life [4] | Vd [4] | Rat F [5] | half-life [5] | Vd [5] | Difference in Weight Bearing, Minimal Efficacious Dose [6] | Mechanical Allodynia (Von Frey), Minimal Efficacious Dose [7] | Mouse microsome t1/2, min [3, 8]
CCn1ncc2ccc(-c3cc(COC(C)(C)C(=O)O)nn3-c3ccccc3N3CCCC3)cc21 [Example 229] | 1.9 nM | 42000 nM | 1.72 h | 64% | 1.82 h | 69% | 3.27 h | 81% | 100% | 4.2 h | 1.9 L/kg | 100% | 2.7 h | 1 L/kg | 3 mg/kg | 3 mg/kg | –
CCCn1ncc2ccc(-c3cc(CO[C@](C)(CC)C(=O)O)nn3-c3ccccc3N3CCC3)cc21 [Example 267, (2R)-2-([1-(2-(azetidin-1-yl)phenyl]-5-(1-propyl-1H-indazol-6-yl)-1H-pyrazol-3-yl]methoxy)-2-methylbutanoic acid] | 0.57 nM | 11000 nM | – | – | – | – | – | – | 64% | 3.3 h | 3.9 L/kg | 54% | 2.6 h | 7.7 L/kg | 3 mg/kg | 3 mg/kg | –
CCn1ncc2ccc(-c3cc(COC(C)(C)C(=O)O)nn3Cc3ccccc3Cl)cc21 [Example 150, 2-([1-[(2-Chlorophenyl)methyl]-5-(1-ethyl-1H-indazol-6-yl)-1H-pyrazol-3-yl]-methoxy)-2-methylpropanoic Acid] | 2.8 nM | 25000 nM | 5.68 h | 90% | 28.6 h | 98% | – | 103% | 89% | 4.9 h | 9.9 L/kg | 43% | 3.6 h | 1.2 L/kg | 10 mg/kg | 10 mg/kg | ∞
CC(C)(OCc1cc(-c2cccc(OC3CC3)c2)n(-c2ccccc2Cl)n1)C(=O)O [Example 110, 2-([1-(2-Chlorophenyl)-5-(3-cyclo-propoxyphenyl)-1H-pyrazol-3-yl)methoxy)-2-methylpropanoic acid] | 20 nM | 30000 nM | 39.6 h | 99% | 9.15 h | 94% | 3.72 h | 86% | 100% | 26.7 h | 0.81 L/kg | 84% | 4.7 h | 0.34 L/kg | 10 mg/kg | 10 mg/kg | –
